Where two headings read alike, the source gives them in different places. Values belong to the compound of their own block, whether it stands above or below them.
Legend:
KCNQ2 potassium channel = target: T1, KCNQ2 potassium channel (Homo sapiens, UniProt O43526); test: Potassium ion channel opener activity test (FDSS/μCELL detection, FluxOR); type: cell-based
T1 construct: expressed in transfected cells; host or cells: CHO (CHO-KCNQ2, kept under G418 selection)
Experimental: After the digestion was completed, 7 mL culture medium (90% DMEM/F12+10% FBS+500 μg/mL G418) was added to neutralize, centrifugated for 3 minutes at 800 rpm, the supernatant was aspirated, then 5 mL culture medium was added to resuspend, and then the cells were counted.
Cell plating: the density to 3×10^4/well was adjusted according to the results of cell counting. After standing at room temperature for 30 minutes, placed in a 37° C. CO2 incubator and incubated overnight for 16-18 hours. The cell density reached about 80%.
Fluorescent dye incubation: discarded the cell culture medium, 80 μL/well loading buffer was added, and incubated in the dark at room temperature for 60 minutes.
Compound incubation: discarded the loading buffer, 80 μL/well prepared compound solution was added, incubated in the dark at room temperature for 20 minutes.
Fluorescence data collection: FDSS/μCELL instrument was used for real-time fluorescence signal recording, excitation wavelength was 480 nm, emission wavelength was 540 nm, recorded 1 times per second, recorded for 10 seconds after baseline and started to add 20 μL/well stimulation buffer, and then continued to record until the end of 180 seconds.
20 mM compound stock solution in DMSO was prepared, 10 μL of 20 mM compound stock solution was took into 20 μL DMSO solution, serially diluted 3 times to 8 intermediate concentrations; then the intermediate concentrations of the compound were took to the test buffer, diluted 200 times to get the final concentration to be tested, 80 μL was took and added to the test plate.
Each concentration set 3 duplicates.
The excitement effect of the compound was calculated by the following formula: […]

[1] = Pharmacokinetics and cerebral blood ratio after single administration in male ICR mice; type: in vivo; conditions: for AUC(0-inf) / AUC(0-t) / Cmax / half-life / Tmax: plasma
Experimental: Take a healthy male ICR mouse (weight range: 18-22 grams in), grouping, 24 mice/group, and 3 mice/time point, fasting for more than 12 hours (only oral administration group), administration, blood was collected by cardiac puncture at time points 0.083 (only iv), 0.25, 0.5, 1, 2, 4, 6 (only po), 8 and 24 hours, at least 0.3 mL of whole blood was collected to EDTA-K2 anti-coagulation tube, within half an hour, plasma was taken by centrifuge (6000 revolutions, 8 minutes, 4° C.), frozen at −20° C. for later use. At the same time, brain tissue was collected in the oral group. After being rinsed with the physiological saline, the water absorbing paper was used to dry, weighed, and frozen at −20° C. for later use.

SD rats = test: Safety research: single tail vein injection toxicity, maximum tolerated dose; type: in vivo; conditions: male SD rats; for Maximum tolerated dose: observed 48 hours
Experimental: (§1) Male Sprague-Dawley (SD) rats (SPF grade) were selected, divided into groups (3 rats per group), and administered via tail vein injection. Single administration, observed for 48 hours after administration. During the experiment, two cage-side observations and two detailed clinical observations were performed every day (observation was carried out before and 2 hours after the administration on the day of administration). Toxicity study animals were weighed and recorded every day, and food consumption of each animal for 24±1 hours was measured and recorded every day. At the end of the experiment (D3), euthanasia was performed by carbon dioxide inhalation anesthesia and the death of the animal was ensured by abdominal aorta/venous bleeding, and gross anatomy was performed and recorded.

[2] = as above; type: in vivo; conditions: rat, in vivo, male SD rats, observed 48 hours
Experimental: as §1

[3] = CHO-KCNQ2 cells, fluorescence, FDSS/μCELL, read-out: EC50

Structure (SMILES): Cc1cc2c(c(C)c1NC(=O)CC(C)(C)C)CCCCN2Cc1ccc(F)cc1 [Compound A1, N-(1-(4-fluorobenzyl)-6,8-dimethyl-2,3,4,5-tetrahydro-1H-benzazepine-7-yl)-3,3-dimethylbutanamide]
EC50 (KCNQ2 potassium channel): 83 nM | F ([1]; gavage 1 mg/kg vs intravenous 0.3 mg/kg): 56.9% | AUC(0-inf) ([1]; mouse, intravenous 0.3 mg/kg): 74 ng·h/mL | AUC(0-t) ([1]; mouse, intravenous 0.3 mg/kg): 73 ng·h/mL | Cmax ([1]; mouse, intravenous 0.3 mg/kg): 110 ng/mL | half-life ([1]; mouse, intravenous 0.3 mg/kg): 319 min | AUC(0-inf) ([1]; mouse, po, gavage 1 mg/kg): 139 ng·h/mL | AUC(0-t) ([1]; mouse, po, gavage 1 mg/kg): 138 ng·h/mL | Cmax ([1]; mouse, po, gavage 1 mg/kg): 94.4 ng/mL | Tmax ([1]; mouse, po, gavage 1 mg/kg): 30 min | half-life ([1]; mouse, po, gavage 1 mg/kg): 325 min | Maximum tolerated dose (SD rats): MTD > 1 mg/kg

Structure (SMILES): Cc1cc2c(c(C)c1NC(=O)CCC1CCCC1)CCCCN2Cc1ccc(F)cc1 [Compound A2, 3-cyclopentyl-N-(1-(4-fluorobenzyl)-6,8-dimethyl-2,3,4,5-tetrahydro-1H-benzazepine-7-yl)propionamide]
EC50 (KCNQ2 potassium channel): 37 nM | Maximum tolerated dose (SD rats): MTD > 1 mg/kg

EC50 (KCNQ2 potassium channel; [3]): 271 nM
Structure (SMILES): CCCC(=O)Nc1c(C)cc2c(c1C)CCCCN2Cc1ccc(F)cc1 [Compound A3, N-(1-(4-fluorobenzyl)-6,8-dimethyl-2,3,4,5-tetrahydro-1H-benzazepine-7-yl)butanamide]

EC50 (KCNQ2 potassium channel; [3]): 165 nM | F ([1]; gavage 2.5 mg/kg vs intravenous 0.5 mg/kg): 43.39% | Kp at 1 h ([1]; mouse, brain, single oral 2.5 mg/kg, 1 h): 1.1 | Kp at 2 h ([1]; mouse, brain, single oral 2.5 mg/kg, 2 h): 1.1 | Kp at 4 h ([1]; mouse, brain, single oral 2.5 mg/kg, 4 h): 1.3 | Kp at 8 h ([1]; mouse, brain, single oral 2.5 mg/kg, 8 h): 1.1 | AUC(0-inf) ([1]; mouse, intravenous 0.5 mg/kg): 255 ng·h/mL | AUC(0-t) ([1]; mouse, intravenous 0.5 mg/kg): 235 ng·h/mL | Cmax ([1]; mouse, intravenous 0.5 mg/kg): 294 ng/mL | half-life ([1]; mouse, intravenous 0.5 mg/kg): 114 min | AUC(0-inf) ([1]; mouse, po, gavage 2.5 mg/kg): 541 ng·h/mL | AUC(0-t) ([1]; mouse, po, gavage 2.5 mg/kg): 510 ng·h/mL | Cmax ([1]; mouse, po, gavage 2.5 mg/kg): 257 ng/mL | Tmax ([1]; mouse, po, gavage 2.5 mg/kg): 30 min | half-life ([1]; mouse, po, gavage 2.5 mg/kg): 117 min
Structure (SMILES): C#CC(C)(C)CC(=O)Nc1c(C)cc2c(c1C)CCCCN2Cc1ccc(F)cc1 [Compound A4, N-(1-(4-fluorobenzyl)-6,8-dimethyl-2,3,4,5-tetrahydro-1H-benzazepine-7-yl)-3,3-dimethylpent-4-ynamide]

EC50 (KCNQ2 potassium channel; [3]): 133 nM
Structure (SMILES): Cc1cc2c(c(C)c1NC(=O)CC1(C)CC1)CCCCN2Cc1ccc(F)cc1 [Compound A5, N-(1-(4-fluorobenzyl)-6,8-dimethyl-2,3,4,5-tetrahydro-1H-benzazepine-7-yl)-2-(1-methylcyclopropyl)acetamide]

Structure (SMILES): Cc1cc2c(c(C)c1NC(=O)CC(C)(C)C)CCCCN2Cc1ccc(Cl)s1 [Compound A6, N-(1-((5-chlorothiophene-2-yl)methyl)-6,8-dimethyl-2,3,4,5-tetrahydro-1H-benzazepine-7-yl)-3,3-dimethylbutamide]
EC50 (KCNQ2 potassium channel): 21 nM | Maximum tolerated dose (SD rats): MTD > 1 mg/kg

Structure (SMILES): Cc1cc2c(c(C)c1NC(=O)CC(C)(C)C)CCCCN2Cc1ccc(F)s1 [Compound A7, N-(1-((5-fluorothiophene-2-yl)methyl)-6,8-dimethyl-2,3,4,5-tetrahydro-1H-benzazepine-7-yl)-3,3-dimethylbutamide]
EC50 (KCNQ2 potassium channel): 16 nM | Maximum tolerated dose (SD rats): MTD > 1 mg/kg

Structure (SMILES): Cc1cc2c(c(C)c1NC(=O)CCC1CCCC1)CCCCN2Cc1ccc(F)s1 [Compound A8, 3-cyclopentyl-N-(1-((5-fluorothiophene-2-yl)methyl)-6,8-dimethyl-2,3,4,5-tetrahydro-1H-benzazepine-7-yl)propionamide]
EC50 (KCNQ2 potassium channel): 48 nM | Maximum tolerated dose (SD rats): MTD > 1 mg/kg

Structure (SMILES): Cc1cc2c(c(C)c1NC(=O)CC(C)(C)C)CCCN2Cc1ccc(F)cc1 [Compound B1, reference compound]
toxicity (SD rats; dose of 0.3 mg/kg): unacceptable toxicity | MTD at 48 h [2]: 0.06 to 0.3 mg/kg

Structure (SMILES): Cc1cc2c(c(C)c1NC(=O)CC(C)(C)C)CCN2Cc1ccc(F)cc1 [Compound B2, reference compound]
toxicity (SD rats; dose of 1 mg/kg): unacceptable toxicity | MTD at 48 h [2]: 0.3 to 1 mg/kg
